Results: ChEMBL document CHEMBL5705887, “Distinct concentration-dependent effects of the polo-like kinase 1-specific inhibitor GSK461364A, including differential effect on apoptosis” (Cancer Res, 2009)
Active and inactive are the calls of the source. The rule behind the calls is not given here.

How the values were obtained:
[1] = system: ASPC1; assay: Antiproliferative activity against human ASPC1 cells assessed as viable cell signal at maximum growth inhibition incubated for 72 hrs by celltiter-glo assay relative to control; assay type: functional
[2] = molecular target: Serine/threonine-protein kinase 10 (Homo sapiens) (UniProt O94804); assay: Inhibition of N-terminal his6-tagged recombinant human LOK (1 to 348 residues) expressed in baculovirus Sf21 cells at 10 uM relative to control
Sequence of Serine/threonine-protein kinase 10 (Homo sapiens) (O94804 whole entry, looked up, the tested form may be a part): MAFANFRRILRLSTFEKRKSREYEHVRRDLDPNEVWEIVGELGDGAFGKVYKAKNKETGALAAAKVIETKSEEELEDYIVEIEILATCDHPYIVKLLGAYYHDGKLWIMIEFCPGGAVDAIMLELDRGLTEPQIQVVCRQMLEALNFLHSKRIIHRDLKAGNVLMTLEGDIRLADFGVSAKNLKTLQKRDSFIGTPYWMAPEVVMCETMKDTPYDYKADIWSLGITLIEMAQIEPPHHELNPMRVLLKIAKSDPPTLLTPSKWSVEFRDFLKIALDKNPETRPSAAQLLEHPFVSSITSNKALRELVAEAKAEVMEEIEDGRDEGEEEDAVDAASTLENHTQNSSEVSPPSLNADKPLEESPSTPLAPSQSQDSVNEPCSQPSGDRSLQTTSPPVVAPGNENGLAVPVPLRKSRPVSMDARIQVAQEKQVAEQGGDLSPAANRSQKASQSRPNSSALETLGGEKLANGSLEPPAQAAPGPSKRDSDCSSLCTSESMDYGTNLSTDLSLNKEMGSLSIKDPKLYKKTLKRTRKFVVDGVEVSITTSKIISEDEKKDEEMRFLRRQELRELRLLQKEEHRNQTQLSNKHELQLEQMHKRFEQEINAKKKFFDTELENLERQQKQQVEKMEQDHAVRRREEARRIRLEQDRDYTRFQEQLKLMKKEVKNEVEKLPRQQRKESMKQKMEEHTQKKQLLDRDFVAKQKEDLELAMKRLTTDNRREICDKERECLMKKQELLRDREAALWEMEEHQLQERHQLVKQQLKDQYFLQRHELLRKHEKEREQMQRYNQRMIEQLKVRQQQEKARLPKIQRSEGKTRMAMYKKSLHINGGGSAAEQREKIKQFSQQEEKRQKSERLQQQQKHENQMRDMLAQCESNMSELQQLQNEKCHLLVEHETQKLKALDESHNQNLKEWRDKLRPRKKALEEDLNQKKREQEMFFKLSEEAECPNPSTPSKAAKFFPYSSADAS

[3] = system: LoVo; assay: Antiproliferative activity against human LoVo cells assessed as growth inhibition incubated for 72 hrs by celltiter-glo assay; assay type: functional
[4] = system: ZR-75-1; assay: Antiproliferative activity against human ZR-75-1 cells assessed as growth inhibition at > 250 nmol/L incubated for 72 hrs by celltiter-glo assay; assay type: functional, cell-based
[5] = system: RPMI-8226; assay: Antiproliferative activity against human RPMI-8226 cells assessed as growth inhibition incubated for 72 hrs by celltiter-glo assay; assay type: functional
[6] = system: Calu-3; assay: Antiproliferative activity against human Calu-3 cells assessed as viable cell signal at maximum growth inhibition incubated for 72 hrs by celltiter-glo assay relative to control; assay type: functional
[7] = system: U-87 MG; assay: Antiproliferative activity against human U-87 MG cells assessed as of viable cell signal at minimum maximum cell growth incubated for 72 hrs by celltiter-glo assay relative to control; assay type: functional, U-87MG ATCC
[8] = system: SW-620; assay: Antiproliferative activity against human SW620 cells assessed as of viable cell signal at minimum maximum cell growth incubated for 72 hrs by celltiter-glo assay relative to control; assay type: functional
[9] = system: NCI-H522; assay: Antiproliferative activity against human NCI-H522 cells assessed as growth inhibition incubated for 72 hrs by celltiter-glo assay; assay type: functional
[10] = system: HCC1937; assay: Antiproliferative activity against human HCC1937 cells assessed as growth inhibition incubated for 72 hrs by celltiter-glo assay; assay type: functional
[11] = system: THP-1; assay: Antiproliferative activity against human THP-1 cells assessed as of viable cell signal at minimum maximum cell growth incubated for 72 hrs by celltiter-glo assay relative to control; assay type: functional
[12] = system: COLO 205; assay: Antitumor activity against human COLO 205 cells xenografted in Nude mouse assessed as tumor regression at 50 mg/kg, ip administered for 12 days; assay type: functional, organism-based; conditions: time 12.0 day
[13] = molecular target: Vascular endothelial growth factor receptor 3 (Homo sapiens) (UniProt P35916); assay: Inhibition of N-terminal GST-tagged recombinant human FLT4 (800 to end residues) at 10 uM relative to control
Sequence of Vascular endothelial growth factor receptor 3 (Homo sapiens) (P35916 whole entry): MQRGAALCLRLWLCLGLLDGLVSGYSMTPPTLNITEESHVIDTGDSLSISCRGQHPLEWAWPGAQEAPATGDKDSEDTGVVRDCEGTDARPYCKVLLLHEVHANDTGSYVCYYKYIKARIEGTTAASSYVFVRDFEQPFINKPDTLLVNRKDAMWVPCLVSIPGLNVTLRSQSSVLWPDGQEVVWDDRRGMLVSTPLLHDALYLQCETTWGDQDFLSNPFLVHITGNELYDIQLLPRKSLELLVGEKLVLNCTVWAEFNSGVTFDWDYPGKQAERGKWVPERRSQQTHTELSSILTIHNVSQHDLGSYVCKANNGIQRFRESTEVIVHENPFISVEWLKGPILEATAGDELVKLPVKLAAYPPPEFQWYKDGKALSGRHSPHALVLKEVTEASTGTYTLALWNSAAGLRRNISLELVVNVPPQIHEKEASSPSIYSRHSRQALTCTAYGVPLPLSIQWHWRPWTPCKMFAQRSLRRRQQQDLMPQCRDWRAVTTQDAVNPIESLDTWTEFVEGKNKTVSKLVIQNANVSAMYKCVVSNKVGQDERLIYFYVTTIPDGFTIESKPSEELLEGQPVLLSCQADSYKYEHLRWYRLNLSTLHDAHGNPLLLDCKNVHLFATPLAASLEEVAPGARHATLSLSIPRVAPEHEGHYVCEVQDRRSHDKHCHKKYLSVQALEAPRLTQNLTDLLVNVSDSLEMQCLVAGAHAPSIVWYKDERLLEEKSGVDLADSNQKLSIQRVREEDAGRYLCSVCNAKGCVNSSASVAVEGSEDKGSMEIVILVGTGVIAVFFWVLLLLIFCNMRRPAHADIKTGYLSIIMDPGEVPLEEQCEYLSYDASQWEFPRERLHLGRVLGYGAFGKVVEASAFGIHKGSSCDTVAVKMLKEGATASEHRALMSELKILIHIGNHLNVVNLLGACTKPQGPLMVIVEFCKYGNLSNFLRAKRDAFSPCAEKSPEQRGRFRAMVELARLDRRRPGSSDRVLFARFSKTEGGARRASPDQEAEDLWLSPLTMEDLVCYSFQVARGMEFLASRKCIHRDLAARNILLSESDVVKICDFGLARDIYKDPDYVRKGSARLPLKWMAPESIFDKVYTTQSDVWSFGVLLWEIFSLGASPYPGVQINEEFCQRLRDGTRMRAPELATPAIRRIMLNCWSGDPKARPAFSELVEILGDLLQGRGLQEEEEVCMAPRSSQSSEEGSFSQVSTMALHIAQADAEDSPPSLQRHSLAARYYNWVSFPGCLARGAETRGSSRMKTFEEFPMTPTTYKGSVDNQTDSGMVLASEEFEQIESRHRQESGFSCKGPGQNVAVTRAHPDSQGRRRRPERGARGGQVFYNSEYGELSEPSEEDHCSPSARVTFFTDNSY

[14] = system: COLO 205; assay: Antitumor activity against human COLO 205 cells xenografted in Nude mouse assessed as tumor growth delay time at 100 mg/kg, ip administered every 2 to 4 days; assay type: functional; conditions: time 2-4 day
[15] = system: U-87 MG; assay: Antiproliferative activity against human U-87 MG cells assessed as growth inhibition incubated for 72 hrs by celltiter-glo assay; assay type: functional, U-87MG ATCC
[16] = system: A498; assay: Antiproliferative activity against human A498 cells assessed as viable cell signal at maximum growth inhibition incubated for 72 hrs by celltiter-glo assay relative to control; assay type: functional
[17] = system: BT-474; assay: Antiproliferative activity against human BT-474 cells assessed as viable cell signal at maximum growth inhibition incubated for 72 hrs by celltiter-glo assay relative to control; assay type: functional
[18] = system: HeLa; assay: Antiproliferative activity against human HeLa cells assessed as of viable cell signal at minimum maximum cell growth incubated for 72 hrs by celltiter-glo assay relative to control; assay type: functional
[19] = system: A549; assay: Induction of mitotic arrest in human A549 cells assessed as effect on pHH3 level at 10 to 250 nmol/L incubated for 19 hrs by ELISA analysis; assay type: functional, cell-based; conditions: dose 10-250 nmol/L
[20] = molecular target: Ribosomal protein S6 kinase alpha-1 (Rattus norvegicus) (UniProt Q63531); assay: Inhibition of recombinant rat RSK1 at 10 uM relative to control
Sequence of Ribosomal protein S6 kinase alpha-1 (Rattus norvegicus) (Q63531 whole entry): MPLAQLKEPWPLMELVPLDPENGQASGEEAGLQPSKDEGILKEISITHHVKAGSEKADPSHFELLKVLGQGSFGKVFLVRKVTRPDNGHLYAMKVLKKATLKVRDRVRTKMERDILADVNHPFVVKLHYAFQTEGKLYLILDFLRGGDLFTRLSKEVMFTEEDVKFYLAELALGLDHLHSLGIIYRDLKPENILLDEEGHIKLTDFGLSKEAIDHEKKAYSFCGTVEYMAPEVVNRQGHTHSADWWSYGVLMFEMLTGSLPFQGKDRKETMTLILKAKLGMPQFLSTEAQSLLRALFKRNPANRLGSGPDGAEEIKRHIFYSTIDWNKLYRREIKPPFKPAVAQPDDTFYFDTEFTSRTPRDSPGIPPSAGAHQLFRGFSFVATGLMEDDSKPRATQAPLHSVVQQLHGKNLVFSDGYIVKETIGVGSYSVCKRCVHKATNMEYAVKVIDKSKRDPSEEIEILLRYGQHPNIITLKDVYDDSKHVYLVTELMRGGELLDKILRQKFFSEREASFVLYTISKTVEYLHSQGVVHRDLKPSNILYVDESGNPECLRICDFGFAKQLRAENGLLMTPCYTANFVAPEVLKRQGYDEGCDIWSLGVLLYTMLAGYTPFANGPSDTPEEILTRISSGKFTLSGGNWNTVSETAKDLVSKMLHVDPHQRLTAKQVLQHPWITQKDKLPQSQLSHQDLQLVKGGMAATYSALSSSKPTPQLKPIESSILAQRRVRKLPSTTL

[21] = system: HT-29; assay: Antiproliferative activity against human HT-29 cells assessed as of viable cell signal at minimum maximum cell growth incubated for 72 hrs by celltiter-glo assay relative to control; assay type: functional
[22] = Antiproliferative activity against human A375P cells assessed as growth inhibition incubated for 72 hrs by celltiter-glo assay; assay type: functional
[23] = system: SW-620; assay: Antiproliferative activity against human SW620 cells assessed as viable cell signal at maximum growth inhibition incubated for 72 hrs by celltiter-glo assay relative to control; assay type: functional
[24] = system: Calu-3; assay: Antiproliferative activity against human Calu-3 cells assessed as of viable cell signal at minimum maximum cell growth incubated for 72 hrs by celltiter-glo assay relative to control; assay type: functional
[25] = system: T47D; assay: Antiproliferative activity against human T47D cells assessed as growth inhibition incubated for 72 hrs by celltiter-glo assay; assay type: functional
[26] = system: NCI-H522; assay: Antiproliferative activity against human NCI-H522 cells assessed as viable cell signal at maximum growth inhibition incubated for 72 hrs by celltiter-glo assay relative to control; assay type: functional
[27] = system: HCC1954; assay: Antiproliferative activity against human HCC1954 cells assessed as of viable cell signal at minimum maximum cell growth incubated for 72 hrs by celltiter-glo assay relative to control; assay type: functional

In the case of `C[C@@H](Oc1cc(-n2cnc3ccc(CN4CCN(C)CC4)cc32)sc1C(N)=O)c1ccccc1C(F)(F)F` [GSK-461364], the Emax [1] is reported as 294%, the inhibition [2] is reported as 86% and the GI50 [3] is reported as 12.2 nM. For the same molecule, the Activity [4] was “Active”, the GI50 [5] was 22.5 nM and the Emax [6] was 190%. The Emin [7] was 0.1%, the Emin [8] was 54.6% and the GI50 [9] was 16.9 nM. For the same molecule, the GI50 [10] was 4790 nM, the Emin [11] was 60.3% and the Activity [12] was “Active”. The inhibition [13] was 87%, the Time [14] was 18 days and the GI50 [15] was 7.45 nM. The Emax [16] was 774%, the Emax [17] was 226% and the Emin [18] was 32.2%. For the same molecule, the Activity [19] was “Active”, the inhibition [20] was 87% and the Emin [21] was 327.7%. For the same molecule, the GI50 [22] was 23.6 nM, the Emax [23] was 634% and the Emin [24] was 115.6%. For the same molecule, the GI50 [25] was 9160 nM, the Emax [26] was 264% and the Emin [27] was 90.9%.
